Patent US6972172B2, “Combinatorial complex carbohydrate libraries and methods for the manufacture and uses thereof” (Glycominds Ltd., priority 2000, dated 2005)

Tests used:
TGP lectin = TGP lectin binding assay; design: species or system Tereagonolobus purpureas; details: Library 1 strip after the ERs sequence; peroxidase-conjugated lectin, O.D. 450 nm; versus control strip without nucleotide sugar
Experimental: TGP: 100 μl of 20 μg/ml TGP lectin conjugated to peroxidase (SIGMA L-1508, 10 peroxidase units per mg protein) was added to the plates and incubated for one hour at 25° C. in TBS containing 1% BSA and 10 millimolar of MnCl2 and of CaCl2. The wells were washed three times with 200 μl TBST with a last wash consisting of a 15 minutes soak. 100 μl of fresh peroxidase substrate solution was added, and an hour later the O.D. of the solution (at 450 nm) was determined. When the above described binding assays were performed on covalently coupled monosaccharide acceptors, such as the case with Covalink NH plates, the TBS incubation solution was replaced with TBST and the wash steps were performed using high ionic strength buffer instead of TBST.

[1] = activity of the polysaccharide as cited from the reference in Table 15; cited from earlier work
[2] = system: anti-Sialyl Lewis X IgM from mouse; experiment: Anti-Sialyl Lewis X antibody binding assay; details: Library 1 strip after the ERs sequence, anti-mouse IgM-biotin, avidin-peroxidase, O.D. 450 nm, versus control strip without nucleotide sugar
Experimental: Anti-Sialyl Lewis X: 100 μl of 10 μg/ml anti-Sialyl Lewis X IgM from mouse (Calbiochem 565953) was added to the plates and incubated for 1 hour at 25° C. in TBS containing 1% BSA. The wells were washed 3 times with 200 μl TBST with a last wash consisting of a 15 minutes soak, following which, a solution of TBS containing 1% BSA and 100 μl of 5 μg/ml goat anti-mouse IgM conjugated to biotin (SIGMA b-9265) was added to the plates and incubated for one hour at 25° C. The wells were washed 3 times with […] with a last wash consisting of a 15 minutes soak, followed by incubation with […] containing 1% BSA and 5 μg/ml avidin conjugated to peroxidase (SIGMA A-3151, 40 peroxidase units per mg protein) for 1 hour at 25° C. The wells were washed three times with 200 μl TBST with a last wash consisting of a 15 minutes soak. 100 μl of fresh peroxidase substrate solution was added, and an hour later the O.D. of the solution (at 450 nm) was determined.
When the above described binding assays were performed on covalently coupled monosaccharide acceptors, such as the case with Covalink NH plates, the TBS incubation solution was replaced with TBST and the wash steps were performed using high ionic strength buffer instead of TBST.

Question: With Gal β 1,4 (Fuc α 1,3)GlcNAc-S [EM 5] as the substance, how does the TGP binding (TGP lectin) read?
Answer: The TGP binding was “increase”.

Question: With Fucoidan as the substance, how does the Activity [1] read?
Answer: Its Activity is “anti coagulant”.

Question: Which “IgM Anti-Sialyl Lewis X binding” value [2] does the source give for “NeuAC α 2,3 Gal β 1,4 (Fuc α 1,3)GlcNAc [EM 6]” here?
Answer: The value was “increase”.
